Experimental data: article PMC12302426, “Dihydrokoumine, a dual-target analgesic with reduced side effects isolated from a traditional Chinese medicine” (Journal of Advanced Research, 2024)

Assays:
M3R = target: T1, M3R (Homo sapiens, UniProt P20309); assay: Radioligand binding assay, [3H] NMS; conditions: [3H] NMS 0.2 nM
T1 construct: expressed in transfected cells; host or cells: HEK293 cell membranes
Experimental: Radioligand binding assays were conducted using MicroBeta2 (PerkinElmer, USA). Membrane protein preparations MOR and M3R were each prepared at a concentration of 2.5 µg/well. The radio ligands [^3H] DAMGO (specific for MOR) and [^3H]-NMS (specific for M3R) were prepared at concentrations of 0.5 nM and 0.2 nM, respectively. […] For each well, 1 µL of the serially diluted test compounds was transferred, followed by the addition of 100 µL of membrane stock solution and 100 µL of radioligand. The plates were sealed and shaken at 300 rpm at room temperature for one hour. Upon completion of the binding assay, the contents of each well were filtered through Unifilter-96 GF/C filter plates (PerkinElmer, USA). The filter plates were dried for one hour at 50°C and sealed. The trapped ^3H (tritium) on the filters was then quantified using the MicroBeta2. The percentage of inhibition or binding was subsequently calculated.

C57BL/6 male mice = assay: Hot-plate assay (acute pain); type: in vivo; conditions: morphine 5 mg/kg i.p.
Experimental: The hot-plate test in mice was conducted following previously established method. Six-week-old C57BL/6 male mice were used in hot-plate assay (n = 6). Hot-plate response latency (55°C) after drug treatment was used to measure antinociceptive effect, where response was defined by the animal either by licking paws, flicking paws or jumping. Mice were exposed to the hot plate (Ugo Basile model 7280, Comerio, Italy) for a maximum of 20 s to avoid tissue damage. After three days’ baseline measure, mice were injected intraperitoneally (5 mL/kg) with the solvent mixture, morphine (5 mg/kg) or DK (20, 40 mg/kg) and latency was tested 0.5-, 1-, 2-, 3- and 4- hours post-administration. Evaluation of MOR agonistic and M3R antagonistic activity of DK, naloxone (2 mg/kg) and oxotremorine (0.4 mg/kg) were first injected intraperitoneally, immediately followed by the injection of morphine (5 mg/kg, evaluation of MOR) or DK (20 mg/kg).

T1 sequence (P20309 whole entry): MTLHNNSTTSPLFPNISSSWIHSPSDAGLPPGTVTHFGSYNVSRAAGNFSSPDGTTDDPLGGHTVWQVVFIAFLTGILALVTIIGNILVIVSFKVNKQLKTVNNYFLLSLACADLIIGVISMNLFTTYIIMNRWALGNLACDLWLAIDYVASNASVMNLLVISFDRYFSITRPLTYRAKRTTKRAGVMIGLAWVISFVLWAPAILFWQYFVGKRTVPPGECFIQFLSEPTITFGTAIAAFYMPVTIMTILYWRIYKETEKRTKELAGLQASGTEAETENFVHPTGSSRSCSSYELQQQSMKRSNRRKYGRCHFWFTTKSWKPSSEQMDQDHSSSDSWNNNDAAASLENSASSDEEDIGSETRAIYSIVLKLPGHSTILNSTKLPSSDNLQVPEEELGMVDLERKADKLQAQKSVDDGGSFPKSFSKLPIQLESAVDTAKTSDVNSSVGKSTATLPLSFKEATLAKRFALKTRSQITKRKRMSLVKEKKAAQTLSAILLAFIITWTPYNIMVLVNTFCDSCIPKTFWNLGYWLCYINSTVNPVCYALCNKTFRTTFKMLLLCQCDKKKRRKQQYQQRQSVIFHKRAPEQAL

With `CN1[C@@H]2C[C@@H](OC(=O)[C@H](CO)c3ccccc3)C[C@H]1[C@@H]1O[C@@H]12` [scopolamine, reference compound] the “efficacy (maximal inhibition of radioligand binding)” value (M3R) was 100%.

`CN1CC[C@]23c4c5ccc(O)c4O[C@H]2[C@@H](O)C=C[C@H]3[C@H]1C5` [morphine, reference compound] was tested, and the “time course of antinociception” value (C57BL/6 male mice) was “largely reduced after one hour and even disappeared at 3 h”.
